The term melting point denotes the temperature of the solid-liquid transition.

The molecule `CCc1[nH]n(-c2c(Cl)cc(Cl)cc2Cl)c2nc(C(O)c3ccccc3)nc(=O)c1-2` (racemic) [Example 117, (+/−)-1-(2,4,6-Trichlorophenyl)-3-ethyl-6-(α-hydroxybenzyl)pyrazolo[3,4-d]pyrimidin-4-one] returned a melting point of 246 to 248 °C.

The molecule `COc1cccc(Cc2nc3n(-c4c(Cl)cc(Cl)cc4Cl)[nH]c(SC)c-3c(=O)n2)c1` [Example 1, 1-(2,4,6-Trichlorophenyl)-3-(methylthio)-6-(3-methoxybenzyl)pyrazolo[3,4-d]pyrimidin-4-one] yielded a melting point of 245 to 248 °C.

Consider `CSc1[nH]n(-c2c(Cl)cc(Cl)cc2Cl)c2nc(Cc3cccc(O)c3)nc(=O)c1-2` [Example 2, 1-(2,4,6-Trichlorophenyl)-3-(methylthio)-6-(3-hydroxybenzyl)pyrazolo[3,4-d]pyrimidin-4-one], for which the melting point lay in the range of 264 to 266 °C.

In turn, `CSc1nn(-c2c(Cl)cc(Cl)cc2Cl)c2nc(Cc3ccncc3)[nH]c(=O)c12` [Example 5] showed a melting point of 283 to 287 °C.

The molecule `COc1ccc(Cc2nc3c(c(SC)nn3-c3c(Cl)cc(Cl)cc3Cl)c(=O)[nH]2)cc1OC` [Example 6] showed a melting point of 226 to 230 °C.

With `CSc1nn(-c2c(Cl)cc(Cl)cc2Cl)c2nc(Cc3cccc([N+](=O)[O-])c3)[nH]c(=O)c12` [Example 7], the melting point was 243 to 255 °C.

The molecule `COc1ccc(Cc2nc3c(c(SC)nn3-c3c(Cl)cc(Cl)cc3Cl)c(=O)[nH]2)cc1` [Example 8] yielded a melting point of 263 to 267 °C.

With `CSc1nn(-c2c(Cl)cc(Cl)cc2Cl)c2nc(Cc3ccc(O)cc3)[nH]c(=O)c12` [Example 9], the melting point lay in the range of 294 to 296 °C.

For the molecule `CSc1nn(-c2c(Cl)cc(Cl)cc2Cl)c2nc(Cc3ccc4c(c3)OCO4)[nH]c(=O)c12` [Example 13], the melting point lay in the range of 257 to 260 °C.

As to `CCc1nn(-c2c(Cl)cc(Cl)cc2Cl)c2nc(Cc3c[nH]c4ccccc34)[nH]c(=O)c12` [Example 18], the melting point lay within 296 to 299 °C.

In turn, `CCc1nn(-c2c(Cl)cc(Cl)cc2Cl)c2nc(Cc3cc(OC)c(OC)c(OC)c3)[nH]c(=O)c12` [Example 24] came in with a melting point of 224 to 226 °C.

For the molecule `CCc1nn(-c2c(Cl)cc(Cl)cc2Cl)c2nc(Cc3ccc(O)c([N+](=O)[O-])c3)[nH]c(=O)c12` [Example 26], the melting point was 263 to 266 °C.

Turning to `CCc1nn(-c2c(Cl)cc(Cl)cc2Cl)c2nc(Cc3c[nH]c4ccc(OC)cc34)[nH]c(=O)c12` [Example 40], the melting point fell in the range of 295 to 298 °C.

Consider `CCc1nn(-c2c(Cl)cc(Cl)cc2Cl)c2nc(Cc3cccc(CC(=O)O)c3)[nH]c(=O)c12` [Example 47], for which the melting point fell in the range of 192 to 194 °C.

`CC(C)c1nn(-c2c(Cl)cc(Cl)cc2Cl)c2nc(Cc3ccc(N)cc3)[nH]c(=O)c12` [Example 52] gave a melting point of 223 to 225 °C.

Consider `COc1cc(Cc2nc3c(c(C(C)C)nn3-c3c(Cl)cc(Cl)cc3Cl)c(=O)[nH]2)ccc1N` [Example 54], for which the melting point lay in the range of 238 to 240 °C.

As for `CC(C)c1nn(-c2c(Cl)cc(Cl)cc2Cl)c2nc(Cc3ccc(N)c(O)c3)[nH]c(=O)c12` [Example 55], the melting point was 210 to 217 °C (dec.).

The molecule `CC(C)c1nn(-c2c(Cl)cc(Cl)cc2Cl)c2nc(Cc3ccc(Br)cc3)[nH]c(=O)c12` [Example 59] gave a melting point of 229 to 230 °C.

Regarding `CC(C)c1nn(-c2c(Cl)cc(Cl)cc2Cl)c2nc(Cc3ccccn3)[nH]c(=O)c12` [Example 60], the melting point was 214 to 215 °C.

In turn, `CC(C)c1nn(-c2c(Cl)cc(Cl)cc2Cl)c2nc(Cc3ccncc3)[nH]c(=O)c12` [Example 61] registered a melting point of 273 to 275 °C.

`Cc1ccc(Cc2nc3c(c(C(C)C)nn3-c3c(Cl)cc(Cl)cc3Cl)c(=O)[nH]2)cc1` [Example 62] gave a melting point of 205 to 206 °C.

As for `Cc1ccccc1Cc1nc2c(c(C(C)C)nn2-c2c(Cl)cc(Cl)cc2Cl)c(=O)[nH]1` [Example 63], the melting point lay in the range of 194 to 195 °C.

Molecule `CC(C)c1nn(-c2c(Cl)cc(Cl)cc2Cl)c2nc(Cc3cccnc3)[nH]c(=O)c12` [Example 64] gave a melting point of 214 to 215 °C.

In the case of `Cc1ccncc1Cc1nc2c(c(C(C)C)nn2-c2c(Cl)cc(Cl)cc2Cl)c(=O)[nH]1` [Example 65], the melting point lay in the range of 225 to 227 °C.

For the molecule `CNc1ccc(Cc2nc3c(c(C(C)C)nn3-c3c(Cl)cc(Cl)cc3Cl)c(=O)[nH]2)cc1` [Example 67], the melting point is 244 to 246 °C.

Molecule `CC(C)c1nn(-c2c(Cl)cc(Cl)cc2Cl)c2nc(Cc3cnccc3Cl)[nH]c(=O)c12` [Example 69] gave a melting point of 245 to 248 °C.

`O=c1[nH]c(Cc2ccc3[nH]ncc3c2)nc2c1c(C1CC1)nn2-c1c(Cl)cc(Cl)cc1Cl` [Example 72] came in with a melting point of 274 to 283 °C.

In turn, `O=c1[nH]c(Cc2ccc([N+](=O)[O-])c(O)c2)nc2c1c(C1CC1)nn2-c1c(Cl)cc(Cl)cc1Cl` [Example 76] came in with a melting point of 259 to 260 °C.

Take `COc1ccc(Cc2nc3c(c(C(F)(F)F)nn3-c3c(Cl)cc(Cl)cc3Cl)c(=O)[nH]2)cc1` [Example 82]: the melting point fell in the range of 263 to 265 °C.

In turn, `CC(C)c1[nH]n(-c2c(Cl)cc(Cl)cc2Cl)c2nc(Cc3ccc(N(C(=O)OC(C)(C)C)C(=O)[C@@H]4CCCN4)cc3)nc(=O)c1-2` [Example 113, (S)-1-(2,4,6-Trichlorophenyl)-3-isopropyl-6-(4-(N-t-butoxycarbonylprolinamido)benzyl)pyrazolo[3,4-d]pyrimidin-4-one] registered a melting point of 225 to 226 °C.

In turn, `CCOC(=O)Cc1ccc(Cc2nc3n(-c4c(Cl)cccc4Cl)[nH]c(C(C)C)c-3c(=O)n2)cc1` [Example 122, 1-(2,6-Dichlorophenyl)-3-isopropyl-6-(4-(carbethoxymethyl)benzyl)pyrazolo[3,4-d]pyrimidin-4-one] returned a melting point of 168 to 169 °C.

In turn, `CC(C)c1[nH]n(-c2c(Cl)cccc2Cl)c2nc(Cc3ccc(CC(=O)O)cc3)nc(=O)c1-2` [Example 123, 1-(2,6-Dichlorophenyl)-3-isopropyl-6-(4-(carboxymethyl)benzyl)pyrazolo[3,4-d]pyrimidin-4-one] came in with a melting point of 212 to 214 °C.

Molecule `CC(C)c1[nH]n(-c2c(Cl)cccc2Cl)c2nc(Cc3ccc(CC(=O)NCCN(C)C)cc3)nc(=O)c1-2` [Example 124, 1-(2,6-Dichlorophenyl)-3-isopropyl-6-(4-(2-(N,N-dimethylamino)ethylaminocarbonylmethyl)benzyl)pyrazolo[3,4-d]pyrimidin-4-one] came in with a melting point of 170 to 172 °C.

Regarding `Cc1cccc(Cl)c1-n1[nH]c(C(C)C)c2c(=O)nc(Cc3ccc(N)cc3)nc1-2` [Example 127, 1-(2-Chloro-6-methylphenyl)-3-isopropyl-6-(4-aminobenzyl)pyrazolo[3,4-d]pyrimidin-4-one], the melting point was 206 to 207 °C.

`CC(C)c1[nH]n(-c2c(Cl)cc(Cl)cc2Cl)c2nc(Cc3ccc(NC(=O)OCCN(C)C)cc3)nc(=O)c1-2` [Example 133, 1-(2,4,6-Trichlorophenyl)-3-isopropyl-6-(4-(2-(dimethylamino)ethoxycarbonylamino)benzyl)pyrazolo[3,4-d]pyrimidin-4-one] registered a melting point of 218 to 220 °C.

In turn, `COc1cccc(Cc2nc3n(-c4c(Cl)cc(C=O)cc4Cl)[nH]c(C(C)C)c-3c(=O)n2)c1` [Example 138, 1-(2,6-Dichloro-4-formylphenyl)-3-isopropyl-6-(3-methoxybenzyl)pyrazolo[3,4-d]pyrimidin-4-one] registered a melting point of 212 to 214 °C.

As to `CC(C)c1nn(-c2ccccc2Cl)c2nc(Cc3cccc(O)c3)[nH]c(=O)c12` [Example 143], the melting point is 227 to 228 °C.

For `CSc1nn(-c2ccccc2Cl)c2nc(Cc3ccc(O)cc3)[nH]c(=O)c12` [Example 149], the melting point lay in the range of 243 to 244 °C.

`COc1ccc(Cc2nc3c(c(SC)nn3-c3ccccc3Cl)c(=O)[nH]2)cc1` [Example 150] showed a melting point of 227 to 228 °C.

The molecule `CCc1nn(-c2ccccc2Br)c2nc(Cc3cccc(OC)c3)[nH]c(=O)c12` [Example 151] returned a melting point of 178 to 180 °C.

Consider `CCc1nn(-c2ccccc2Br)c2nc(Cc3ccc(N)cc3)[nH]c(=O)c12` [Example 152], for which the melting point was in the range of 246 to 249 °C.

On to `CCc1nn(-c2ccccc2Br)c2nc(Cc3cccc(O)c3)[nH]c(=O)c12` [Example 153], for which the melting point fell in the range of 199 to 201 °C.

As to `CCc1nn(-c2ccccc2F)c2nc(Cc3cccc(OC)c3)[nH]c(=O)c12` [Example 154], the melting point lay in the range of 193 to 194 °C.

`CCc1nn(-c2ccccc2F)c2nc(Cc3cccc(O)c3)[nH]c(=O)c12` [Example 155] registered a melting point of 235 to 237 °C.

`CCc1nn(-c2ccccc2F)c2nc(Cc3ccc(N)cc3)[nH]c(=O)c12` [Example 157] had a melting point of 231 to 233 °C.

In the case of `CCc1nn(-c2c(Cl)cc(C(F)(F)F)cc2Cl)c2nc(Cc3cccc(OC)c3)[nH]c(=O)c12` [Example 166], the melting point was 192 to 193 °C.

In the case of `CCc1nn(-c2c(Cl)cc(C(F)(F)F)cc2Cl)c2nc(Cc3ccc(OC)cc3)[nH]c(=O)c12` [Example 168], the melting point is 240 to 241 °C.

In turn, `CCc1nn(-c2c(Cl)cc(Br)cc2Cl)c2nc(Cc3ccc(O)cc3)[nH]c(=O)c12` [Example 169] showed a melting point of 284 to 286 °C.

As for `CCc1nn(-c2c(Cl)cc(Br)cc2Cl)c2nc(Cc3cccc(O)c3)[nH]c(=O)c12` [Example 170], the melting point lay in the range of 242 to 244 °C.

`CCc1nn(-c2c(Cl)cccc2Cl)c2nc(Cc3ccc(O)cc3)[nH]c(=O)c12` [Example 171] returned a melting point of 262 to 263 °C.

With `CCc1nn(-c2c(Cl)cccc2Cl)c2nc(Cc3cccc(O)c3)[nH]c(=O)c12` [Example 173], the melting point was in the range of 242 to 244 °C.

With `CCc1nn(-c2c(Cl)cc(Br)cc2Cl)c2nc(Cc3cccc(OC)c3)[nH]c(=O)c12` [Example 174], the melting point was in the range of 232 to 233 °C.

The molecule `CCc1nn(-c2c(Cl)cc(Br)cc2Cl)c2nc(Cc3ccc(OC)cc3)[nH]c(=O)c12` [Example 175] yielded a melting point of 252 to 253 °C.

On to `CCc1nn(-c2c(Cl)cccc2Cl)c2nc(Cc3ccc(OC)cc3)[nH]c(=O)c12` [Example 176], for which the melting point lay in the range of 220 to 222 °C.

Source of the values: patent US6531477B1, “6-substituted pyrazolo [3,4-d] pyrimidin-4-ones useful as cyclin dependent kinase inhibitors” (DuPont Pharmaceuticals Company, priority 1998, dated 2003).
